From patent publication US11400059B2, “Treatment of pain and/or pain related symptoms associated with dysmenorrhea” (ALYRA BIOTECH PTY LTD, priority 2017, dated 2022)

Columns and labels:
[1] = test system: spinal microglia (Iba1) in the dorsal horn of the spinal cord; assay: Spinal microglial activation (Iba1 immunofluorescence) after intrauterine LPS; type: in vivo, mouse (Balb/C); conditions: intrauterine, mixed with LPS 100 μg/kg on first day of estrus and alone the subsequent day, 3 estrous cycles; amitriptyline 28 μg/kg, TAK-242 36 μg/kg; vs LPS
Experimental: (§1) Group 1 included twelve mice with 20 μl endotoxin-free saline introduced to the uterus on the first day of estrus and the subsequent day over 3 consecutive estrous cycles. Group 2 included twelve mice with LPS (100 μg/kg) instilled in the uterus on the first day of estrus and saline injected on the subsequent day over 3 consecutive estrous cycles. Group 3 included twelve mice with LPS (100 μg/kg) mixed with amitriptyline (20 μl of a 100 μM solution, equivalent to 28 μg/kg) instilled in the uterus on the first day of estrus, and amitriptyline alone instilled on the subsequent day over 3 consecutive estrous cycles. Group 4 included 14 mice with LPS (100 μg/kg) mixed with TAK-242 (20 μl of a 100 μM solution, equivalent to 36 μg/kg) instilled on the first day of estrus and TAK-242 alone instilled on the subsequent day over 3 consecutive estrous cycles.
The investigation involved the instillation of 20 ul of an endotoxin-free 0.9% saline solution into the uterus of all animals on the first day of estrus and the subsequent day during 3 consecutive estrous cycles. Additional agents added to the saline were included according to the groups outlined below. Where LPS is administered, this was done on only 1 day per estrous cycle.
Where amitriptyline or TAK-242 was administered, this is on both the first day of estrus and the subsequent day.
(§2) The spinal cord was assessed using immunohistochemistry techniques across levels T10, T11, T12, T13, L1, L2, L3, L4, L5, L6, S1 and S2 for Groups 1 and 2, where T represents the thoracic segment of the spinal cord, L represents the lumbar segment of the spinal cord and S represents the sacral segment of the spinal cord.
as §2, with “levels” for “levels T10, T11,”, “L6, S” for “L6, S1”, “Groups 3” for “Groups 1”, “and 4,” for “and 2,”, “cord. […]” for “cord.”

[2] = test system: mice with intrauterine LPS; assay: Facial Grimace Scale 24 hours after final LPS stimulation; type: in vivo, mouse (Balb/C); conditions: LPS in conjunction with amitriptyline or TAK242, 24 hours after final LPS stimulation
Experimental: as §1
24 hours following the final LPS stimulation mice were subjected to assessment for the presence or absence of pain. This was assessed using the following tests:
Facial Grimace Scale: Photos of mice in their home cage will be taken, to score their facial Grimace and this was quantified and compared between groups. For further information see: http://www.nature.com/nmeth/journal/v7/n6/full/nmeth.1455.html.

Human NOD2 = target: T1, Human NOD2 (Homo sapiens, UniProt Q9HC29); assay: Human NLR antagonist screening, NF-κB SEAP reporter in HEK293 cells; type: cell-based; conditions: antagonist mode, Ami 1 μM, +L18-MDP 50 ng/mL, No Sample 18, Control− 1
T1 construct: expressed in transfected cells; host or cells: HEK293
Experimental: Toll-Like Receptor (TLR), NOD-Like Receptor (NLR) and C-Type Lectin Receptor (CLR) stimulation were tested by assessing NF-κB activation in HEK293 cells expressing a given TLR, NLR or CLR. The activity of the test articles was tested at one concentration and compared to control ligands. These steps were performed in triplicate. hNOD2: L18-MDP at 100 ng/mL Antagonist: 50 ng/mL. In a 96-well plate (200 μL total volume) containing the appropriate cells (50,000-75,000 cells/well), 20 μL of the test article or the positive control ligand was added to the wells. For the antagonist assay, the test article was incubated with the cells, at 37° C. with 5% CO2, for 30 minutes prior to the addition of the positive control ligand to the wells. The media added to the wells was designed for the detection of NF-κB induced SEAP expression. After a 16-24 hr incubation the optical density (OD) was read at 650 nm on a Molecular Devices SpectraMax 340PC absorbance detector. Fold induction (ratio of average induced value to average non-induced value) was determined for each TLR, NOD1, NOD2, Dectin-1a, Dectin-1b.

T1 sequence (Q9HC29 whole entry): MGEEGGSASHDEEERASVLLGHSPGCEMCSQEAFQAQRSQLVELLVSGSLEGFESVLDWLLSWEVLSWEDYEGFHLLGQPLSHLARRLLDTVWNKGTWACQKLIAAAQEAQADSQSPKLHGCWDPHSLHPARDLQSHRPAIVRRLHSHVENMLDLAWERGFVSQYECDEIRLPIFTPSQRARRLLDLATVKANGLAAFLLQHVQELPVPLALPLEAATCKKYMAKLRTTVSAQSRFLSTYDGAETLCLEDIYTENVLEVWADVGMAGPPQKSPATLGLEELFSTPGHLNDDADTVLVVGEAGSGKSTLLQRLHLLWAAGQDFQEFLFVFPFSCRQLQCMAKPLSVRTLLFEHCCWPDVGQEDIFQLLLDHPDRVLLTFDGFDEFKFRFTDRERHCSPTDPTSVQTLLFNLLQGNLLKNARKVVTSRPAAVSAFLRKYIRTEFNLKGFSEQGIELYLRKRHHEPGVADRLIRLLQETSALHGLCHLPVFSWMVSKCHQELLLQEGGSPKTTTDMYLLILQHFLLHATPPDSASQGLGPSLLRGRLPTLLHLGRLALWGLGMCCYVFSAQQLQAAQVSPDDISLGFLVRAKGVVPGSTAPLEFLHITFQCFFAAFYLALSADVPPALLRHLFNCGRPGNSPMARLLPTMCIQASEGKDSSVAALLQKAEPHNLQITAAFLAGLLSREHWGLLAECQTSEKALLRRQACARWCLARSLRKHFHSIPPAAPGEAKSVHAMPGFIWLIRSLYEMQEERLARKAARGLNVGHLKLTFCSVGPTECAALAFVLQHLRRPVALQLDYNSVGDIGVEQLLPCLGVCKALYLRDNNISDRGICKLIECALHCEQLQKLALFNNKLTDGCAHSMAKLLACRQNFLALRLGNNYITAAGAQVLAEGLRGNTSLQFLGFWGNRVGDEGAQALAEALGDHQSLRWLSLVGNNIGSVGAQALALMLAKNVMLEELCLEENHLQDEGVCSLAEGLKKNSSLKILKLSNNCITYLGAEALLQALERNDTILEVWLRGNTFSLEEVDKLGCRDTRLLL

With CN(C)CCC=C1c2ccccc2CCc2ccccc21 [Amitriptyline] the “microglial reactivity (Iba1 staining), impact of intrauterine LPS at multiple levels of the spinal cord” value [1] was “reduced microglial reactivity to basal levels”, the Grimace scores [2] was “reduced these scores” and the “Fold Induction” value (Human NOD2) was “slight inhibitory effect”. The “Fold Induction” value (Human NOD2; listed as Ami) was 17.
